Data reported in patent publication US6787318B1, “Assay for evaluating the therapeutic effectiveness of agents in reducing Alzheimer's disease pathology” (Roskamp Research Institute, LLC, priority 1999, dated 2004).
“Also recorded” adds a separate entry of the source.

Legend:
[1] = test system: CD40; assay: CD40 cell-surface expression on HAEC, flow cytometry; format: cell-based, human; conditions: Aβ 500 nM, IFN-γ 10 U/mL; vs control peptide or Aβ-free
Description: Cultured HAEC were treated as described above. […] Cells were analyzed on a FACScan flow cytometer (Becton-Dickinson, Mountain View, Calif.) using LYSIS-II software. CD40-expressing cells are defined as percentage of CD40-staining cells minus the percentage of IgG1-staining cells.
CD40 expression between control peptide-treated and Aβ-free AEC was relatively similar.

[2] = test system: CD40; assay: CD40 cell ELISA on cultured HAEC; format: cell-based, human; conditions: Aβ 50 nM to 10,000 nM; IFN-γ 5 to 500 U/mL; 48 hours
Description: To determine if CD40 expression on cultured HAEC was IFN-γ or Aβ dose-dependent, CD40 cell ELISA assays were performed according to published procedures. Briefly, cultured HAEC were plated at 2×10^4 cells/well in flat-bottom, 96-well tissue culture plates (Nunc-Immuno™ Plate, Denmark). […] Other HAEC were treated with a dose range (5 U/mL to 500 U/mL) of IFN-γ. […] Forty-eight hours post-treatment, plates were fixed overnight at 4° C. in 1% paraformaldehyde diluted in 1×PBS, washed three times with wash buffer (0.5% Tween 20 in 1×PBS), and subsequently incubated with […] of blocking buffer (10% fetal bovine serum in wash buffer) for one hour at 37° C. Cells were then treated with purified anti-human CD40 antibody ([…], PharMingen, Los Angeles, Calif.) in […] of blocking buffer for one hour at 37° C. Plates were washed four times with wash buffer. Biotinylated anti-mouse IgG1 (PharMingen, Los Angeles, Calif.; 1:2,000 dilution in blocking buffer, […]) was added and incubated for one hour at 37° C., followed by the addition of […] of a 1:3,000 dilution of HRP-Streptavidin (ZYMED, San Francisco, Calif.) for thirty minutes at 37° C. Plates were washed 4× with wash buffer and developed for twenty minutes at room temperature using the 3, 3′, 5, 5′-tetramethylbenzidine (TMB) one-step substrate system (DAKO, Carpinteria, Calif.) followed by the addition of 100 μL/well of 2N H2SO4 to stop the reaction. Absorbance was measured at 450 nm using a microplate spectrophotometer (SPECTRAmax 250, Molecular Devices, Sunnyvale, Calif.).

[3] = test system: IFN-γ; assay: IFN-γ secretion from HAEC, ELISA; format: cell-based, human; conditions: 24 hours
Description: (§1) The assay for either IL-1β or IFN-γ was performed in strict accordance with the manufacturer's instructions for the respective assay kits.
(§2) Activation of CD40 signalling can be achieved by stimulation with either CD40L or certain anti-CD40 mAbs. Since synthetic CD40L is not commercially available, one of the anti-CD40 mAbs (clone 3/23), which has been reported to activate CD40 signalling, was used to mimic the effect of interaction of CD40-CD40L. All Aβ-treated cells were incubated with 1 μg/ml anti-CD40 mAb […]) for four hours followed by CELISA.
(§3) The resulting cell culture media were assayed for IL-1β or IFN-γ using ELISA. […] The lowest effective concentration was determined to be 100 nM for IFN-γ ([…]). The lowest effective concentration was determined to be 100 nM for IFN-γ (p<0.01) and 1 μM for IL-1β (p<0.01).

[4] = test system: IL-1β; assay: IL-1β secretion from HAEC, ELISA; format: cell-based, human; conditions: 24 hours
Description: as §1, §3

[5] = test system: TNF-α; assay: TNF-α release from cultured microglia, TNF-α ELISA; format: cell-based, mice; conditions: 500 nM, primary cultured microglia
[6] = test system: IFN-γR; assay: IFN-γR expression in HASM cells, cell-ELISA (CELISA); format: cell-based, human; conditions: Aβ-treated cells, 1 μg/ml mAb, four hours
Description: (§4) In vitro measurement of Aβ-induced changes in expression of the inflammatory cell-surface molecules CD40 and […] in cultured HAEC and HASM cells was performed using a slightly modified ABC-based cell-ELISA (CELISA). […] After PBS washes, 4% neutral formalin solution (Sigma) was used for fixation of the cells. Following quenching of the endogenous peroxidase activity with 3% H2O2 and routine blocking of non-specific binding, the biotinylated specific secondary antibodies against the primary antibodies (goat anti-mouse or anti-rabbit IgG) were applied. The combination of EXTRAVIDIN® Proxidase and the subsequent color reaction was performed strictly according to the manufacturer's instructions in the EXTRAVIDIN® Peroxidase Staining Kit (Sigma). The absorbance of 405 nm was then measured using a microplate reader (SPECTRAmax 250, Molecular Devices). The optical density (O.D.) value for the wells in the absence of the primary antibody for each group was considered as background and subtracted as the blank. In addition, stimulation with IFN-γ for CD40 was included as a positive control in the appropriate plate. Since CD45 is not expressed by endothelial or smooth muscle cells, the assays for expression of CD45 in these Aβ-treated cells were used as negative controls throughout the experiment. In addition, to evaluate the degree of cell death or proliferation in the Aβ-treated, cells, parallel experiments were performed using the MTS (3-(4,5-dimethylthiazol-2-yl)-5-(3-carboxymethoxyphenyl)-2-(4-sulfophenyl)-2H-tetrazolium) cell-proliferation kit (Promega).
as §2

[7] = test system: IFN-γR; assay: IFN-γR expression in HAEC, cell-ELISA (CELISA) and Western blotting; format: cell-based, human
Description: as §4, §2
The total protein was estimated using the Bio-Rad protein assay. An aliquot corresponding to 100 μg of total protein of each sample was separated by SDS/PAGE (polyacrylamide gel electrophoresis) and transferred electrophoretically to PVDF filters. Non-specific binding of antibody was blocked with 5% non-fat dry milk, in 20 mM Tris/HCl, pH 7.5/150 mM NaCl/0.1% Triton X-100. Immunoblotting was carried out with the appropriate antibody followed by alkaline phosphatase-conjugated secondary anti-immunoglobulin antibodies. These were then developed by the chemiluminescence method (Bio-Rad).

[8] = test system: CD40; assay: CD40 expression in HAEC, cell-ELISA (CELISA); format: cell-based, human
Description: as §4

[9] = test system: TNF-α; conditions: high doses, literature (Meda et al.); cited from earlier work
[10] = test system: cortical neurons; assay: Cortical neurons incubated with treated N9 microglia, photomicrographs; format: cell-based, murine; conditions: Aβ1-42 250 nM, CD40L 0.5 μg/ml
[11] = test system: CD40; assay: CD40 expression in primary cultured microglia; format: cell-based, mice; conditions: microglia from control littermates exposed to exogenous peptide, vs Aβ40-1 or sAPPα-695
[12] = test system: CD40; assay: CD40 expression in Aβ-treated N9 and N60 microglial cells, flow cytometry; format: cell-based, murine
Description: Mononuclear cells from AD patients secrete markedly higher levels of IFN-γ compared to age-matched controls (18).

Aβ1-42: amyloid β peptide 1-42, freshly solubilized
CD40 cell-surface expression, flow cytometry [1]: significantly induce CD40 expression
dose dependence of endothelial CD40 [2]: marked increase in endothelial CD40 which is dose-dependent
lowest effective concentration for IFN-γ secretion [3]: 100 nM
IFN-γ secretion, dose dependence ([3]; increasing concentrations): increases the secretion of IL-1β and IFN-γ in a dose-dependent manner
lowest effective concentration for IL-1β secretion [4]: 1 µM
IL-1β secretion, dose dependence ([4]; increasing concentrations): increases the secretion of IL-1β and IFN-γ in a dose-dependent manner
TNF-α release, peptide alone [5]: does not induce TNF-α release
IFN-γR expression in HASM cells on CD40 ligation by mAb (3/23) [6]: additive
Aβ-induced IFN-γR expression in HAEC on CD40 ligation ([7]; 1 μg/ml mAb (3/23), four hours): significant effect
IFN-γR expression in HAEC ([7]; 48 hours): preferentially activates endothelial cells rather than smooth muscle cells
CD40 expression in HAEC, dose dependence [8]: dose-dependently increase CD40 expression
lowest effective concentration for CD40 expression ([8]; HAEC): 100 nM
dose able to produce increased TNF-α production in microglial cells [9]: > 11 µM
change in cortical neurons [10]: no change in cortical neurons
CD40 expression in primary cultured microglia [11]: CD40 expression is increased
CD40 expression on cultured microglial cells ([12]; 250 nM freshly solubilized peptide, N9 and N60 cells, vs control peptide or Aβ-free): significantly induce CD40 expression
dose dependence of microglial CD40 expression ([12]; from 50 to 1250 nM, N9 cells): induces microglial CD40 expression in a dose-dependent manner; also recorded: induced microglial CD40 expression in a dose dependent manner
